Converted amounts (≈) assume the structure as drawn. Structures can show the parent of a compound that is named as a salt. Where two headings read alike, the source gives them in different places. Marks after values point to notes of the source that are not given here.
Key:
MRSA = experiment: MIC testing by broth dilution, MRSA; assay type: cell-based, Staphylococcus aureus
Outline: (§1)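 Values are broth-dilution MICs, defined as the well showing no growth on visual reading after 24 h; the tested range was 32 to 0.06 μg/ml, in organism-specific media (LB, Trypticase Soy, Brain Heart Infusion). The C. difficile entries come instead from anaerobic Kirby-Bauer disk zones, normalised to NTZ.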

H. pylori = experiment: MIC testing by broth dilution, H. pylori; assay type: cell-based, Helicobacter pylori
Outline: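 Broth dilution MIC determination against H. pylori: a standard inoculum in 100 microliters of Brain Heart Infusion medium was placed in 96 well microplates. Test compounds began at 32 μg/ml in 200 microliters in well one and were serially diluted over a 32 to 0.06 range. After 24 h, plates were scored by eye and the first well without growth was recorded as the MIC.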

C. jejuni = experiment: MIC testing by broth dilution, C. jejuni; assay type: cell-based, Campylobacter jejuni
Outline: as §1

S. epidermidis = experiment: MIC testing by broth dilution, S. epidermidis plank; assay type: cell-based, Staphylococcus epidermidis
Outline: as §1

[1] = system: PFOR (pyruvate ferredoxin oxidoreductase); experiment: Direct PFOR enzyme assay; assay type: biochemical
Procedure: (§2) Representative compounds of the invention were tested in a series of assays against a series of organisms as described above. […] The organisms tested include, C. difficile, H. pylori, C. jejuni, MRSA, S. epidermidis, and E. coli. S. epidermidis and E. coli were tested in the plank and biofilm assay. A disk diffusion assay was also used for C. difficile. Direct PFOR enzyme assays were also performed. All analogues and derivatives were not tested on every organism in every type of assay (the “-” in each table means that it was not tested).

E. coli = experiment: MIC testing by broth dilution, E. coli plank; assay type: cell-based, Escherichia coli
Outline: as §1

S. epidermidis biofilm = S. epidermidis biofilm assay (activity tables); assay type: cell-based, Staphylococcus epidermidis
Outline: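 Overnight TSB cultures diluted to OD600 0.01 and grown static with compound (triplicate) at 37° C for 16 h; turbidity recorded for growth. Biofilm: washed wells ethanol-fixed, stained with 0.5% crystal violet, A570 read before and after 95% ethanol extraction; mean ± SD.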

E. coli biofilm = E. coli biofilm assay (activity tables); assay type: cell-based, Escherichia coli; conditions: biofilm
Outline: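 After 24 h static culture at 37 °C in wells containing NTZ, strain 042 (1:100 inoculum) biofilm was quantified by 0.5% crystal violet absorbance at 570 nm. Planktonic growth was taken from turbidity or LB plate counts as cfu/ml; all runs triplicate, reported as mean and SD.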

C. difficile = experiment: Disk diffusion (Kirby Bower), C. difficile; assay type: cell-based, Clostridium difficile; conditions: zone of inhibited growth as relative ratio to the zone for NTZ
Procedure: A standard broth dilution protocol was used in 96 well microplates containing a standard dilution of the microorganism to be tested in 100 microliters of the appropriate medium. Appropriate medium: E. coli, LB medium; Staphylococcus strains, Trypticase Soy; and for H. pylori and C. jejuni, Brain Heart Infusion. The compounds to be tested were set at 32 μg/ml in 200 microliters in well one and then serially diluted to provide a range from 32 to 0.06. The wells were scored visually at 24 h. The well where there was no growth was recorded as the MIC. Clostridium difficile was tested by agar diffusion and disk diffusion (Kirby Bower) methods under anaerobic conditions on Wilkins Chalgrin agar. In these assays, zone of inhibited growth was measured and compared by relative ratio to the zone recorded for NTZ.
as §2

[2] = * biphasic initial inhibition followed by uninhibited rate, ** caused some precipitant in extract
[3] = broth dilution, LB medium, 24 h, read-out: MIC (μM) E. coli Plank
[4] = broth dilution, Trypticase Soy, 24 h, read-out: MIC (μM) MRSA
[5] = broth dilution, Brain Heart Infusion, 24 h, read-out: MIC (μM) H. pylori
[6] = broth dilution, Brain Heart Infusion, 24 h, read-out: MIC (μM) C. jejuni
[7] = broth dilution, Trypticase Soy, 24 h, read-out: MIC (μM) S. epidermidis Plank
[8] = Staphylococcus aureus, MRSA, 24 h, read-out: MIC (μM) MRSA
[9] = Helicobacter pylori, 24 h, read-out: MIC (μM) H. pylori
[10] = Campylobacter jejuni, 24 h, read-out: MIC (μM) C. jejuni
[11] = Staphylococcus epidermidis, 24 h, read-out: MIC (μM) S. epidermidis Plank

O=C(Nc1sc([N+](=O)[O-])cc1[N+](=O)[O-])c1cccc(C(F)(F)F)c1Cl [VPC16b2028]
MIC (MRSA; 2-amino-3,5-dinitrothiophene analogues table, read-out: MIC MRSA): 30.3 µM (≈ 12 µg/mL)
MIC (H. pylori; 2-amino-3,5-dinitrothiophene analogues table, read-out: MIC H. pylori): 0.8 µM (≈ 0.317 µg/mL)
MIC (C. jejuni; 2-amino-3,5-dinitrothiophene analogues table, read-out: MIC C. jejuni): 1.9 µM (≈ 0.752 µg/mL)
MIC (S. epidermidis; planktonic, 2-amino-3,5-dinitrothiophene analogues table, read-out: MIC S. epidermidis Plank): 30.3 µM (≈ 12 µg/mL)
PFOR inhibition relative to nitazoxanide (=100) [1, 2]: 113%

NCCOc1ccccc1C(=O)Nc1sc([N+](=O)[O-])cc1[N+](=O)[O-] [VPC16b2031, 2-(2-Aminoethoxy)-N-(3,5-dinitrothiophen-2-yl)benzamide]
MIC (MRSA; Staphylococcus aureus, MRSA, read-out: MIC MRSA): 82.3 µM (≈ 29 µg/mL)
MIC (H. pylori; Helicobacter pylori, read-out: MIC H. pylori): 1.9 µM (≈ 0.669 µg/mL)
MIC (C. jejuni; Campylobacter jejuni, read-out: MIC C. jejuni): 1.3 µM (≈ 0.458 µg/mL)
MIC (S. epidermidis; Staphylococcus epidermidis, read-out: MIC S. epidermidis Plank): 25.7 µM (≈ 9.05 µg/mL)
PFOR inhibition relative to nitazoxanide (=100) [1, 2]: 162%

N#Cc1ccc(C(=O)Nc2ncc([N+](=O)[O-])s2)cc1 [VPC161086]
MIC (E. coli; [3]): 87.5 µM (≈ 24 µg/mL)
MIC (MRSA; [4]): 14.6 µM (≈ 4 µg/mL)
MIC (H. pylori; [5]): 9.1 µM (≈ 2.5 µg/mL)
MIC (μM) S. epidermidis Biofilm (S. epidermidis biofilm): 4.6 µM (≈ 1.26 µg/mL)
MIC (C. jejuni; [6]): 43.8 µM (≈ 12 µg/mL)
MIC (S. epidermidis; [7]): 21.9 µM (≈ 6.01 µg/mL)
MIC (E. coli biofilm; read-out: MIC (μM) E. coli Biofilm): 58.3 µM (≈ 16 µg/mL)
PFOR inhibition relative to nitazoxanide (=100) [1]: 74%

O=C(Nc1ncc([N+](=O)[O-])s1)c1cc2ccccc2o1 [VPC161144]
MIC (E. coli; planktonic, Furan analogues table, read-out: MIC E. coli Plank): 110.6 µM (≈ 32 µg/mL)
MIC (MRSA; Furan analogues table, read-out: MIC MRSA): 57.0 µM (≈ 16.5 µg/mL)
MIC (H. pylori; Furan analogues table, read-out: MIC H. pylori): 0.6 µM (≈ 0.174 µg/mL)
MIC S. epidermidis Biofilm (S. epidermidis biofilm; Furan analogues table): 110.6 µM (≈ 32 µg/mL)
MIC (C. jejuni; Furan analogues table, read-out: MIC C. jejuni): 110.6 µM (≈ 32 µg/mL)
MIC (S. epidermidis; planktonic, Furan analogues table, read-out: MIC S. epidermidis Plank): 110.6 µM (≈ 32 µg/mL)
MIC (E. coli biofilm; Furan analogues table, read-out: MIC E. coli Biofilm): 110.6 µM (≈ 32 µg/mL)
PFOR inhibition relative to nitazoxanide (=100) ([1]; Furan analogues table): 70%

O=C(Nc1nc(Cl)c([N+](=O)[O-])s1)c1ccccc1 [VPC162087]
MIC (E. coli; [3]): 112.8 µM (≈ 32 µg/mL)
MIC (MRSA; [4]): 112.8 µM (≈ 32 µg/mL)
MIC (H. pylori; [5]): 8.8 µM (≈ 2.5 µg/mL)
Disk Diffusion (%) C. difficile (C. difficile): 66%
MIC (C. jejuni; [6]): 7.1 µM (≈ 2.01 µg/mL)
MIC (S. epidermidis; [7]): 35.2 µM (≈ 9.99 µg/mL)
PFOR inhibition relative to nitazoxanide (=100) [1]: 107%

O=C(Nc1nc(Cl)c([N+](=O)[O-])s1)c1cccc(C(F)(F)F)c1 [VPC162088]
MIC (E. coli; [3]): 91.0 µM (≈ 32 µg/mL)
MIC (MRSA; [4]): 11.4 µM (≈ 4.01 µg/mL)
MIC (H. pylori; [5]): 5.7 µM (≈ 2 µg/mL)
Disk Diffusion (%) C. difficile (C. difficile): 76%
MIC (C. jejuni; [6]): 34.1 µM (≈ 12 µg/mL)
MIC (S. epidermidis; [7]): 8.5 µM (≈ 2.99 µg/mL)
PFOR inhibition relative to nitazoxanide (=100) [1]: 49** %

O=C(Nc1nc(Cl)c([N+](=O)[O-])s1)c1cccs1 [VPC162089, N-(4-Chloro-5-nitrothiazol-2-yl)thiophene-2-carboxamide]
MIC (E. coli; Escherichia coli, broth dilution, LB medium, 24 h, read-out: MIC (μM) E. coli Plank): 110 µM (≈ 32 µg/mL)
MIC (MRSA; Staphylococcus aureus, MRSA, broth dilution, Trypticase Soy, 24 h, read-out: MIC (μM) MRSA): 110 µM (≈ 32 µg/mL)
MIC (H. pylori; Helicobacter pylori, broth dilution, Brain Heart Infusion, 24 h, read-out: MIC (μM) H. pylori): 6.9 µM (≈ 2 µg/mL)
MIC (C. jejuni; Campylobacter jejuni, broth dilution, Brain Heart Infusion, 24 h, read-out: MIC (μM) C. jejuni): 13.8 µM (≈ 4 µg/mL)
MIC (S. epidermidis; Staphylococcus epidermidis, broth dilution, Trypticase Soy, 24 h, read-out: MIC (μM) S. epidermidis Plank): 82.8 µM (≈ 24 µg/mL)
PFOR inhibition relative to nitazoxanide (=100) [1]: 93%

NCCOc1ccsc1C(=O)Nc1ncc([N+](=O)[O-])s1 [VPC162125, 3-(2-Aminoethoxy)-N-(5-nitrothiazol-2-yl)thiophene-2-carboxamide hydrochloride]
MIC (E. coli; Escherichia coli, 24 h, read-out: MIC (μM) E. coli Plank): 91.2 µM
MIC (MRSA; [8]): 91.2 µM
MIC (H. pylori; [9]): 0.7 µM
MIC (C. jejuni; [10]): 11.4 µM
MIC (S. epidermidis; [11]): 91.2 µM
PFOR inhibition relative to nitazoxanide (=100) [1]: 137%

NCCCc1ccccc1C(=O)Nc1ncc([N+](=O)[O-])s1 [VPC162134, 2-(3-Aminopropyl)-N-(5-nitrothiazol-2-yl)benzamide hydrochloride]
MIC (MRSA; [8]): 93.3 µM
MIC (H. pylori; [9]): 2.9 µM
MIC (C. jejuni; [10]): 17.5 µM
MIC (S. epidermidis; [11]): 93.3 µM
PFOR inhibition relative to nitazoxanide (=100) [1]: 144%

Reference: US8835644B2, “Broad spectrum benzothiophene-nitrothiazolide and other antimicrobials” (University of Virginia Patent Foundation, priority 2009, dated 2014)
